# Test results published in patent publication US6673768B1, “Transgenic animal models for cardiac hypertrophy and methods of use thereof (treating)” (Board of Regents, The University of Texas System, priority 1997, dated 2004).
# How the values were obtained:
# [1] = test system: cardiac α-actin promoter; test: Cardiac α-actin promoter-reporter (luciferase) activity in transfected cardiomyocytes exposed to agonists; type: cell-based, rat; settings: for induction of cardiac α-actin promoter-reporter activity over control cells: PE 100 μM, TGF-β1 1 ng/ml
# Experimental: (§1) FIG. 10 presents data showing the effects of adrenoceptor agonists on promoter-reporter activities for ANF, skeletal a-actin and cardiac a-actin, and a time course of effects of DOB on ANF message levels. FIGS. 10A, B, and C are bar graphs showing luciferase reporter levels after transfection of ANF, skeletal α-actin, and cardiac a-actin, respectively, into ventricular myocardial cells, and treatment, 24 hours after transfection, with PE (100 μM), DOB (10 μM), or TGF-β1 (1 ng/ml). Values are corrected for transfection efficiency and reported as the mean±SD from at least three experiments. FIG. 10D. Ventricular myocardial cells were switched to serum-free medium. DOB was added to the medium at various time points. “Control” represents cells treated with the DOB vehicle. 24 hours after incubation, total RNA was extracted and analyzed by Northern blot. Results are representative of n=3 or greater for each time point.
# Transient transfection. It was necessary to culture the isolated cardiomyocytes in serum-free medium to eliminate effects on gene expression mediated through serum response elements. Primary myocardial cultures were first washed with serum-free growth medium and then maintained in serum-free Medium 199 supplemented with Nutridoma HU (Boehringer Mannheim Corporation, Indianapolis, Ind.) which contained human serum albumin, bovine insulin and human transferrin. Transfection were carried out by using a liposome-based transfecting agent, Lipofectamine (Life Technologies, Grand Island, N.Y.). The procedures used for transient transfection were followed as the manufacturer's instructions. The optimal values including DNA concentration, lipofectamine concentration, and time length for tansfection were determined prior to experiments carried out in this study. […]
# (§2) For α1-adrenergic stimulation, 100 μM PE (Sigma, St. Louis, Mo.) was added to the cells. […] Chemiluminescent β-galactosidase activity was assayed by using an aliquot of the same cell lysates collected for the luciferase assay and measured in the same luminometer as described below. […]
# [2] = test system: CaM kinase II; test: Autonomous CaM kinase II activity in neonatal rat heart tissue slices; type: biochemical; settings: for CaMKII autonomous activation, increase over unstimulated heart tissues: 30 seconds after treatment, DOB 10 μM, ISO 100 μM
# Experimental: FIG. 9 is a bar graph depicting stimulation of CaMKII activity by b1-adrenergic receptor in neonate rat heart tissue. Neonatal (1-4 day old) heart tissue slices were isolated and treated with isoproterenol (ISO, 100 μM), dolbutamine (DOB, 10 μM), or vehicle alone (control). Propanolol (PROP, 20 μM) was added 2 minutes before agonists were added. After 30 seconds of treatment, autonomous CaMKII activity was assayed. Data are shown as percentage of the ratio of calcium independent activity divided by total activity and represented as the mean±SD from at least three experiments.
# Determination of autonomous CaM kinase II activity. CaM kinase II autonomous activity was determined in rat heart tissue homogenates using the synthetic peptide substrate, autocamtide-2 (KKALRRQETVDAL) (Mar et al. (1990) Mol. Cell. Biol. 10:4271-4283; and Farrance et al. (1992) J. Biol. Chem. 267:17234-17240) as exogenous substrate. […] Autonomous CaM kinase II activity was assayed by the phosphorylation of autocamtide-2 in the absence of Ca^2+/calmodulin and expressed as a proportion of activity obtained in the presence of these cofactors. Tissue slices were incubated in the presence or absence of various drug compounds for required time. At termination of the incubation the tissue slices were homogenized in ice-cold buffer (20 mM Tris-HCl, pH 7.5, 0.5 mM EGTA, 1.0 mM EDTA, 2.0 mM dithiothreitol, 10 mM sodium pyrophosphate, 0.4 mM ammonium molybdate, […]) by sonication. Supernatant were cleared by centrifugation (12,000×g, 2 minutes) and then assayed in a reaction mixture containing 50 mM PIPES (pH 7.0), 10 mM MgCl2 0.1 mg/ml bovine serum albumin, […], 20 mM [γ-^32P] […] Endogenous protein was sedimented by centrifugation and supernatants containing autocamtide-2 were spotted onto p81 phosphocellulose strips, washed 5 times, dried and ^32P-PO4 content was quantitated by Cerenkov radiation.
# These experiments determined whether signaling through β1-adrenergic receptor subtype could activate cardiac CaMKII. […]
# [3] = test system: tetracycline-controlled transactivator (tTA); test: tTA-dependent luciferase target gene expression in primary rat cardiomyocytes; type: cell-based
# Experimental: Cardiomyocytes were co-transfected with tTA expression plasmid pUHD15-1 and either a tTA-dependent luciferase construct pUHC13-3 or empty vector as control. 16 hours after transfection, cells were incubated in either medium without doxcycline (DOX) or medium with doxcycline. […] Open circles, empty vector, no DOX; filled circles, empty vector, plus DOX; open triangles, pUHC 13-3, no DOX; filled triangles, pUHC13-3, plus DOX. FIG. 11B is a bar graph depicting the ability of tTA to stimulate transcription of the target gene and the inhibitory effect of doxcycline 12 hours after transfection.
# Tetracycline-controlled transactivator (tTA) expression plasmid pUHD15-1 encodes chimeric protein tTA under the control of the human cytomegalovirus (CMV) promoter and enhancer. tTA consists of amino acid residues 1-207 from the tetR protein and residues 363-490 from VP16 (Gossen and Bujard (1992) Proc. Natl. Acad. Sci. USA 89:5547-5551.
# Plasmid pUHD10-3 contains a chimeric tet operon/CMV minimal promoter upstream of multiple cloning sites (Bujard, 1996). pUHC13-3 is a firefly luciferase reporter gene expression plasmid driven by the chimeric tet operon/CMV minimal promoter (Gossen and Bujard (1992).
# The firefly luciferase gene as a reporter gene was under control of the chimeric tet operon/CMV minimal promoter in pUHC13-3. Transient transfections were carried out as described in Example 3. […]
# [4] = test system: ANF promoter; test: ANF promoter-reporter (luciferase) activity in transfected cardiomyocytes exposed to agonists; type: cell-based, rat
# Experimental: as §1
# Transient transfection. It was necessary to culture the isolated cardiomyocytes in serum-free medium to eliminate effects on gene expression mediated through serum response elements. Primary myocardial cultures were first washed with serum-free growth medium and then maintained in serum-free Medium 199 supplemented with Nutridoma HU (Boehringer Mannheim Corporation, Indianapolis, Ind.) which contained human serum albumin, bovine insulin and human transferrin. Transfection were carried out by using a liposome-based transfecting agent, Lipofectamine (Life Technologies, Grand Island, N.Y.). The procedures used for transient transfection were followed as the manufacturer's instructions. The optimal values including DNA concentration, lipofectamine concentration, and time length for tansfection were determined prior to experiments carried out in this study. Briefly, for each transfection, 2 μg DNA and 20 μg lipofectamine were diluted into separate vials containing 300 μl serum-free nutridoma supplemented medium. The two solutions were then combined and incubated at room temperature for 15-45 minutes to allow DNA-liposome complexes to form. For each transfection, 2.4 ml of serum-free nutridoma supplemented medium were added to the tube containing the DNA-liposome complexes and the diluted mixture was overlaid onto the adherent cardiomyocytes that had been rinsed once with 2 ml of serum-free medium in a 60-mm tissue culture plate. The cell cultures were incubated at 37° C. in a C02 incubator containing 5% CO2 for 24 hours, at which time various test compounds were added. Promoter activities from cell extracts were assayed within 48 hours following the start of transfection.
# For α1-adrenergic stimulation, 100 μM PE (Sigma, St. Louis, Mo.) was added to the cells. DOB (Gensia Laboratories, Ltd., Irving, Calif.), a selective β1-adrenergic agonist, was added at a concentration of 10 μM. To correct for variation in transfection efficiencies, pβGal-Control was used as an internal control. Chemiluminescent β-galactosidase activity was assayed by using an aliquot of the same cell lysates collected for the luciferase assay and measured in the same luminometer as described below.
# Firefly luciferase assay. The firefly luciferase assay is based upon a commercial (Promega, Madison, Wis.) long term “glow” type of bioluminescence assay. Briefly, activation of luciferin results in the formation of an enzyme-bound luciferyl adenylate (luciferyl-AMP). […]
# [5] = test system: skeletal α-actin promoter; test: Skeletal α-actin promoter-reporter (luciferase) activity in transfected cardiomyocytes exposed to agonists; type: cell-based, rat
# Experimental: as §1
# Transient transfection. […] The optimal values including DNA concentration, lipofectamine concentration, and time length for tansfection were determined prior to experiments carried out in this study. […]
# as §2
# [6] = test system: ANF mRNA; test: ANF message level by Northern analysis in neonatal cardiocytes; type: cell-based, rat
# Experimental: FIG. 10 presents data showing the effects of adrenoceptor agonists on promoter-reporter activities for ANF, skeletal a-actin and cardiac a-actin, and a time course of effects of DOB on ANF message levels. FIGS. 10A, B, and C are bar graphs showing luciferase reporter levels after transfection of ANF, skeletal α-actin, and cardiac a-actin, respectively, into ventricular myocardial cells, and treatment, 24 hours after transfection, with PE (100 μM), DOB (10 μM), or TGF-β1 (1 ng/ml). Values are corrected for transfection efficiency and reported as the mean±SD from at least three experiments. FIG. 10D. Ventricular myocardial cells were switched to serum-free medium. […] 24 hours after incubation, total RNA was extracted and analyzed by Northern blot. […]
# Northern Analysis. […] After washing at high stringency (0.1×SSPE, 0.1% SDS, 65° C.), hybridized biotinylated cDNA were detected by using Chemiluminescent Detection System (TROPIX, Inc., Bedford, Mass.) and then exposed to X-ray film. The ANF bands were quantitated with a Howteck gel scanner (PDI, Huntington station, N.Y.) and normalized to the 28 S rRNA signal to correct for loading and/or transfer efficiencies.
# Primary cultures of neonatal cardiocytes were kept in serum-free medium and β1 agonist, DOB, was applied to the cells at various times. ANF message RNA was evaluated in the end by northern analysis protocols as described above. […]
# [7] = test system: neonatal rat cardiomyocytes; test: AngII- and PE-induced hypertrophy of primary cardiomyocytes (anti-α-actinin staining, cell size and sarcomeric assembly); type: cell-based; settings: 72 hr; AngII 10 nM or PE 10 μM
# Experimental: A-F, Primary rat cardiocytes in serum-free medium were stimulated with AngII (10 nM) or PE (10 μm) for 72 hours. Cells were then fixed and stained with anti-α-actinin antibody to reveal sarcomeres and Hoechst stain to reveal nuclei.
# To visualize primary cardiomyocytes and their sarcomeric organization, anti-α-actinin mouse monoclonal antibody was used (Sigma). […] Cells were washed in 1×phosphate-buffered saline (PBS), fixed in 3.7% paraformaldehyde for 5 minutes, washed three times with 1×PBS and then pre-blocked in 1×PBS containing 2% horse serum, 2% BSA, and 0.1% non-ionic detergent NP40 for 30 minutes. Anti-α-actinin antibody was added at a dilution of 1:800 in fresh preblock solution and incubated for an additional 30 minutes. Subsequently, the cells were washed three times in 1×PBS with 0.1% NP40. Anti-mouse TRITC-conjugated secondary antibody was then added at a dilution of 1:400 for 30 minutes in pre-block solution and the cells were again washed three times in 1×PBS containing 0.1% NP40. Nuclear staining for DNA was performed with 0.5 μg/ml of bisbenzimide in PBS for 15 minutes followed by three rinses with PBS.
# [8] = DOB 10 μM, added 24 hours after transfection
# [9] = PE exposure, construct includes PERE motif
compound,measurement,setting,value
TGF-β1: type β-transforming growth factor,induction of cardiac α-actin promoter-reporter activity over control cells,[1],700%
"CC(C)NCC(O)c1ccc(O)c(O)c1 (stereo not drawn) [ISO, isoproterenol]","CaMKII autonomous activation, increase over unstimulated heart tissues",[2],~170%
C[C@H]1c2cccc(O)c2C(O)=C2C(=O)[C@]3(O)C(O)=C(C(N)=O)C(=O)[C@@H](N(C)C)[C@@H]3[C@@H](O)[C@@H]21 [doxcycline],transactivation of the tTA-dependent target gene,"[3]; 1 μg/ml after transfection, tTA-transfected cells",markedly repressed
same,low level expression of the target gene caused by the treatment itself,"[3]; 1 μg/ml, 12 hour post-transfection",~4 fold
"CC(CCc1ccc(O)cc1)NCCc1ccc(O)c(O)c1 (stereo not drawn) [DOB, dobutamine]",decrease of ANF promoter-reporter activity,[4]; [8],approximately 50%
same,decrease of cardiac α-actin promoter-reporter activity,[1]; [8],approximately 50%
same,decrease of skeletal α-actin promoter-reporter activity,[5]; [8],approximately 50%
same,decline of ANF mRNA compared to control values,[6]; 24 hours after DOB exposure,75%
same,abundance of ANF message relative to control cultures,"[6]; within 16 hours of DOB exposure, serum-free medium",about half
same,"CaMKII autonomous activation, increase over unstimulated heart tissues",[2],~170%
"CNC[C@H](O)c1cccc(O)c1 [PE, phenylephrine]",transactivation of ANF reporter activity over control cells,[4]; PE 100 μM,200%
same,activation of ANF50 (NP338) nested deletion promoter-reporter construct,"[4]; PE exposure, construct has lost PERE motif",not
same,activation of ANF135 (NP325) nested deletion promoter-reporter construct,[4]; [9],activated
same,activation of ANF700 (NP337) nested deletion promoter-reporter construct,[4]; [9],activated
same,induction of cardiac α-actin promoter-reporter activity over control cells,[1],not significantly stimulated
same,transactivation of skeletal α-actin reporter activity over control cells,[5]; PE 100 μM,200%
same,cardiomyocyte size and sarcomeric assembly after exposure to agonist,[7],dramatic increase in size and sarcomeric assembly
"CC(C)NCC(O)COc1cccc2ccccc12 (stereo not drawn) [PROP, propanolol]",effect on DOB- or ISO-induced CaMKII autonomous activity,[2]; PROP 20 μM added prior to agonist,blocked activation
